The results in this text go back to ChEMBL document CHEMBL2331399, “Purification and characterization of carbonic anhydrase from sheep kidney and effects of sulfonamides on enzyme activity” (Bioorg Med Chem, 2013).

Each structure is given as a SMILES string.

A short description of this assay: Inhibition of sheep kidney esterase activity of carbonic anhydrase using 4-nitrophenylacetate as substrate after 3 mins by spectrophotometric analysis. On the set-up: species or system Ovis aries.
The term Ki denotes the equilibrium dissociation constant of an inhibitor or competing ligand from its target. A low value points to a stronger hold on the target. `NS(=O)(=O)c1ccccc1Br` registered a Ki of 5.87 µM.

For `NS(=O)(=O)c1ccccc1` [BENZENESULFONAMIDE], the Ki worked out at 8.66 µM.

The compound `Nc1ccc(S(N)(=O)=O)cc1` [SULFANILAMIDE] returned a Ki of 69.3 µM.

In the case of `Cc1ccc(S(N)(=O)=O)cc1` [P-TOLUENESULFONAMIDE], affinity was put at a Ki of 1.35 µM.

In turn, `NS(=O)(=O)c1ccc2ccccc2c1` displayed a Ki of 2.59 µM.
